Columns and labels:
[1] = tested on: PC-3; test: Growth inhibition of human PC3 cells assessed as cell growth at 10 uM after 48 hrs by sulforhodamine B assay; format: functional; settings: PC-3, 48 h, read-out: Activity
[2] = tested on: SW-620; test: Growth inhibition of human SW620 cells after 48 hrs by sulforhodamine B assay; format: functional; settings: SW-620, 48 h
[3] = tested on: HT-29; test: Growth inhibition of human HT-29 cells after 48 hrs by sulforhodamine B assay; format: functional; settings: HT-29, 48 h
[4] = Growth inhibition of human HCC2998 cells after 48 hrs by sulforhodamine B assay; format: functional; settings: HCC 2998, 48 h
[5] = tested on: NCI-H460; test: Growth inhibition of human NCI-H460 cells after 48 hrs by sulforhodamine B assay; format: functional; settings: NCI-H460, 48 h
[6] = tested on: NCI-H226; test: Growth inhibition of human NCI-H226 cells after 48 hrs by sulforhodamine B assay; format: functional; settings: NCI-H226, 48 h
[7] = tested on: HOP-92; test: Growth inhibition of human HOP92 cells after 48 hrs by sulforhodamine B assay; format: functional, cell-based; settings: HOP-92, 48 h
[8] = tested on: A549; test: Growth inhibition of human A549/ATCC cells after 48 hrs by sulforhodamine B assay; format: functional; settings: A549, 48 h
[9] = tested on: 786-0; test: Growth inhibition of human 786-0 cells assessed as cell growth at 10 uM after 48 hrs by sulforhodamine B assay; format: functional; settings: 786-0, 48 h, read-out: Activity
[10] = tested on: SK-OV-3; test: Growth inhibition of human SKOV3 cells assessed as cell growth at 10 uM after 48 hrs by sulforhodamine B assay; format: functional; settings: SK-OV-3, 48 h, read-out: Activity
[11] = tested on: UACC-257; test: Growth inhibition of human UACC257 cells assessed as cell growth at 10 uM after 48 hrs by sulforhodamine B assay; format: functional; settings: UACC-257, 48 h, read-out: Activity
[12] = tested on: SK-MEL-28; test: Growth inhibition of human SK-MEL-28 cells assessed as cell growth at 10 uM after 48 hrs by sulforhodamine B assay; format: functional; settings: SK-MEL-28, 48 h, read-out: Activity
[13] = tested on: U-251; test: Growth inhibition of human U251 cells assessed as cell growth at 10 uM after 48 hrs by sulforhodamine B assay; format: functional; settings: U-251, 48 h, read-out: Activity
[14] = tested on: SNB-19; test: Growth inhibition of human SNB19 cells assessed as cell growth at 10 uM after 48 hrs by sulforhodamine B assay; format: functional; settings: SNB-19, 48 h, read-out: Activity
[15] = tested on: HT-29; test: Growth inhibition of human HT-29 cells assessed as cell growth at 10 uM after 48 hrs by sulforhodamine B assay; format: functional; settings: HT-29, 48 h, read-out: Activity
[16] = tested on: HCT-116; test: Growth inhibition of human HCT116 cells assessed as cell growth at 10 uM after 48 hrs by sulforhodamine B assay; format: functional; settings: HCT-116, 48 h, read-out: Activity
[17] = tested on: NCI-H23; test: Growth inhibition of human NCI-H23 cells assessed as cell growth at 10 uM after 48 hrs by sulforhodamine B assay; format: functional; settings: NCI-H23, 48 h, read-out: Activity
[18] = tested on: NCI-H226; test: Growth inhibition of human NCI-H226 cells assessed as cell growth at 10 uM after 48 hrs by sulforhodamine B assay; format: functional; settings: NCI-H226, 48 h, read-out: Activity
[19] = tested on: MDA-MB-468; test: Growth inhibition of human MDA-MB-468 cells after 48 hrs by sulforhodamine B assay; format: functional, cell-based; settings: MDA-MB-468, 48 h
[20] = tested on: T47D; test: Growth inhibition of human T47D cells after 48 hrs by sulforhodamine B assay; format: functional
[21] = tested on: MCF7; test: Growth inhibition of human MCF7 cells after 48 hrs by sulforhodamine B assay; format: functional; settings: MCF7, 48 h
[22] = tested on: A498; test: Growth inhibition of human A498 cells after 48 hrs by sulforhodamine B assay; format: functional, cell-based; settings: A498, 48 h
[23] = tested on: ACHN; test: Growth inhibition of human ACHN cells after 48 hrs by sulforhodamine B assay; format: functional
[24] = Growth inhibition of human NCI-ADR-RES cells after 48 hrs by sulforhodamine B assay; format: functional
[25] = tested on: OVCAR-3; test: Growth inhibition of human OVCAR3 cells after 48 hrs by sulforhodamine B assay; format: functional, cell-based; settings: OVCAR-3, 48 h
[26] = tested on: IGROV-1; test: Growth inhibition of human IGROV1 cells after 48 hrs by sulforhodamine B assay; format: functional; settings: IGROV-1, 48 h
[27] = tested on: SNB-75; test: Growth inhibition of human SNB75 cells after 48 hrs by sulforhodamine B assay; format: functional; settings: SNB-75, 48 h
[28] = tested on: U-251; test: Growth inhibition of human U251 cells after 48 hrs by sulforhodamine B assay; format: functional; settings: U-251, 48 h
[29] = tested on: SF-539; test: Growth inhibition of human SF539 cells after 48 hrs by sulforhodamine B assay; format: functional; settings: SF-539, 48 h
[30] = tested on: SF-295; test: Growth inhibition of human SF295 cells after 48 hrs by sulforhodamine B assay; format: functional, cell-based; settings: SF-295, 48 h
[31] = tested on: HOP-62; test: Growth inhibition of human HOP62 cells assessed as cell growth at 10 uM after 48 hrs by sulforhodamine B assay; format: functional; settings: HOP-62, 48 h, read-out: Activity
[32] = tested on: A549; test: Growth inhibition of human A549/ATCC cells assessed as cell growth at 10 uM after 48 hrs by sulforhodamine B assay; format: functional; settings: A549, 48 h, read-out: Activity
[33] = tested on: HL-60(TB); test: Growth inhibition of human HL-60(TB) cells assessed as cell growth at 10 uM after 48 hrs by sulforhodamine B assay; format: functional; settings: HL-60, 48 h, read-out: Activity
[34] = read-out: LC50 (the source's name)

COc1cc(-c2nn(-c3cccc(NC(=O)c4cccc(C(F)(F)F)c4)c3)cc2-c2ccncc2)ccc1Cl
growth at 10 µM [1]: 4.39% | GI50 [2]: 2310 nM | TGI [2]: > 50000 nM | CC50 [2, 34]: > 50000 nM | GI50 [3]: 1390 nM | TGI [3]: 20100 nM | CC50 [3, 34]: > 50000 nM | GI50 [4]: 2240 nM | TGI [4]: 17600 nM | CC50 [4, 34]: > 50000 nM | GI50 [5]: 1450 nM | LC50 [5]: > 50000 nM | TGI [5]: 9270 nM | GI50 [6]: 1660 nM | TGI [6]: 27000 nM | CC50 [6, 34]: > 50000 nM | GI50 [7]: 555 nM | IC50 [7]: 560 nM | LC50 [7]: > 50000 nM | TGI [7]: 3120 nM | GI50 [8]: 1870 nM | LC50 (concentration killing 50% of starting cells) [8]: > 50000 nM | TGI [8]: > 50000 nM | growth at 10 µM [9]: 29.8% | growth at 10 µM [10]: 7.18% | growth at 10 µM [11]: 34.5% | growth at 10 µM [12]: 32.5% | growth at 10 µM [13]: 13.1% | growth at 10 µM [14]: 47.3% | growth at 10 µM [15]: -12.1% | growth at 10 µM [16]: 8.15% | growth at 10 µM [17]: 24.8% | growth at 10 µM [18]: 36.2% | GI50 [19]: 1320 nM | IC50 [19]: 1320 nM | TGI [19]: 4560 nM | CC50 [19, 34]: > 50000 nM | GI50 [20]: 2550 nM | TGI [20]: > 50000 nM | CC50 [20, 34]: > 50000 nM | GI50 [21]: 1430 nM | LC50 [21]: > 50000 nM | TGI [21]: > 50000 nM | GI50 [22]: 687 nM | IC50 [22]: 690 nM | TGI [22]: 2780 nM | CC50 [22, 34]: > 50000 nM | GI50 [23]: 1890 nM | TGI [23]: > 50000 nM | CC50 [23, 34]: > 50000 nM | GI50 [24]: 1090 nM | TGI [24]: 3170 nM | CC50 [24, 34]: > 50000 nM | GI50 [25]: 1200 nM | IC50 [25]: 1200 nM | TGI [25]: 2980 nM | CC50 [25, 34]: > 50000 nM | GI50 [26]: 1830 nM | LC50 (concentration killing 50% of cells) [26]: > 50000 nM | TGI [26]: > 50000 nM | GI50 [27]: 1130 nM | LC50 (lethal concentration, 50% net cell kill) [27]: > 50000 nM | GI50 [28]: 1620 nM | LC50 (concentration killing 50% of cells) [28]: > 50000 nM | TGI [28]: > 50000 nM | GI50 [29]: 895 nM | LC50 (concentration killing 50% of cells) [29]: > 50000 nM | TGI [29]: 2300 nM | GI50 [30]: 1020 nM | IC50 [30]: 1020 nM | TGI [30]: 3000 nM | CC50 [30, 34]: > 50000 nM | growth at 10 µM [31]: 22.9% | growth at 10 µM [32]: 7.4% | growth at 10 µM [33]: 1.93%
